Experimental data from paper PMC8514817, “De Novo Design of Antimicrobial Peptides With a Special Charge Pattern and Their Application in Combating Plant Pathogens” (Frontiers in Plant Science, 2021).
Where two headings read alike, the source gives them in different places.

Columns and labels:
[1] = system: Ralstonia solanacearum (Rs); type: cell-based; conditions: at the highest peptide concentration (32μg/ml) tested; data not shown; before the tests in minimal media
Eco = type: cell-based, Escherichia coli
Rs = type: cell-based, Ralstonia solanacearum; conditions: crude peptide, 5 μl of 64 μg/ml in 20 μl, bacteria OD600=0.4 in water, 2 h, confocal microscopy
[2] = system: Pectobacterium carotovorum subsp. carotovorum (Pcc); assay: Plant disease response, Pcc infection of tomato L390 leaves; type: in vivo, Solanum lycopersicum; conditions: for size of disease lesions caused by Pcc, tomato: crude peptide 16 μg/ml mixed with Pcc, detached wounded tomato L390 leaves, 16–28 h post-inoculation, vs water
[3] = system: Pectobacterium carotovorum subsp. carotovorum (Pcc); assay: Plant disease response, Pcc infection of Arabidopsis Col0 leaves; type: in vivo, Arabidopsis thaliana; conditions: crude peptide 16 μg/ml mixed with Pcc, wounded leaves of Arabidopsis Col0, 16–28 h post-inoculation, vs water
Botrytis cinerea (Bc) [4] = assay: Plant disease response, Bc infection of tomato L390 leaves; type: in vivo, Solanum lycopersicum; conditions: crude peptide 16 μg/ml mixed with Bc spores (10^4 spores/ml), 47–70 h post-inoculation, vs water
Botrytis cinerea (Bc) [5] = assay: Plant disease response, Bc infection of Arabidopsis Col0 leaves; type: in vivo, Arabidopsis thaliana; conditions: for development of the lesion caused by Bc, Arabidopsis: crude peptide 16 μg/ml mixed with Bc spores (10^5 spores/ml), Arabidopsis Col0 leaves, 47–70 h post-inoculation, vs water
Eco DH5α [6] = conditions: 48 h
Xev Xvt28 [7] = conditions: 48 h
Xoo Xoo28 [8] = conditions: Table 4, rich medium, up to 32 μg/ml; for MIC: 48 h, no visible growth; for MBC: spotted on rich agar 48 h, no colony
Pcc = conditions: up to 32 μg/ml
Pst DC3000 = conditions: Table 4, rich medium, up to 32 μg/ml; for MIC: 48 h, no visible growth; for MBC: spotted on rich agar 48 h, no colony
Pss B728a = conditions: Table 4, rich medium, up to 32 μg/ml; for MIC: 48 h, no visible growth; for MBC: spotted on rich agar 48 h, no colony
Ech = conditions: up to 32 μg/ml
Rs Pss4 = conditions: Table 5, minimal medium, crude peptides, up to 32 μg/ml; for MIC: 96 h; for MBC/MFC: spotted on rich agar 48 h
Rs Pss190 = conditions: Table 5, minimal medium, crude peptides, up to 32 μg/ml; for MIC: 96 h; for MBC/MFC: spotted on rich agar 48 h
Bc = conditions: for MIC / MBC/MFC: Table 5, minimal (CD) medium, crude peptides, up to 32 μg/ml; for MIC: spores, 96 h; for MBC/MFC: spotted on PD plate 24~72 h; for antimicrobial activity: at the highest peptide concentration (32μg/ml) tested, data not shown, before the tests in minimal media
Cgl FST02 = conditions: for MIC / MBC/MFC: Table 5, minimal (CD) medium, crude peptides, up to 32 μg/ml; for MIC: spores, 96 h; for MBC/MFC: spotted on PD plate 24~72 h; for antimicrobial activity: at the highest peptide concentration (32μg/ml) tested, data not shown, before the tests in minimal media
Xcc Xcc17 = type: cell-based, Xanthomonas campestris pv. campestris; conditions: rich medium, HPLC-purified peptides, peptide 0, 2, 10, 20 μg/ml, 24 h, OD600; lowest concentration inhibiting 50% of growth
Xoo Xoo28 [9] = type: cell-based, Xanthomonas oryzae pv. oryzae; conditions: rich medium, HPLC-purified peptides, peptide 0, 2, 10, 20 μg/ml, 24 h, OD600; lowest concentration inhibiting 50% of growth
Atu C58C1 = type: cell-based, Agrobacterium tumefaciens; conditions: rich medium, HPLC-purified peptides, peptide 0, 2, 10, 20 μg/ml, 24 h, OD600; lowest concentration inhibiting 50% of growth
[10] = Circular dichroism, secondary structure deconvolution; type: physicochemical; conditions: CD, structural deconvolution
Experimental: The peptides were dissolved in water to make a stock solution and then diluted in the solution that contained different concentrations of trifluoroethanol (TFE) to the desired final TFE concentration. The circular dichroism (CD) spectra between 190 and 250nm were recorded on a J-815 CD spectrometer (JASCO, Japan). The bandwidth was 2nm, and the step resolution was 0.05nm. Each sample was scanned twice, and the average of the two measurements was smoothed using the Savitzky-Golay method to get the final CD spectrum. The CD spectra were deconvoluted using the CD Multivariate SSE software version 2.0.1 (JASCO, Japan).

Eco DH5α [11] = system: Eco DH5α
Xev Xvt28 [12] = conditions: 24 h
[13] = Table 4, rich medium, 48 h, no visible growth
[14] = Table 5, minimal medium, crude peptides, 96 h
[15] = Table 5, minimal medium, crude peptides, spotted on rich agar 48 h
[16] = Table 7, rich media, spotted on rich agar 48 h

Substance | antimicrobial activity [1] | membranolytic effect (SYTOX Green staining) (Eco) | membranolytic effect (SYTOX Green staining) (Rs) | size of disease lesions caused by Pcc, tomato [2] | size of disease lesions caused by Pcc, Arabidopsis [3] | development of the lesion caused by Bc, tomato (Botrytis cinerea (Bc) [4]) | development of the lesion caused by Bc, Arabidopsis (Botrytis cinerea (Bc) [5]) | MBC (Eco DH5α [6]) [µg/mL] | MBC (Xev Xvt28 [7]) [µg/mL] | MIC (Xev Xvt28 [7]) [µg/mL] | MIC (Xoo Xoo28 [8]) [µg/mL] | MBC (Xoo Xoo28 [8]) [µg/mL] | MIC (Pcc; [13]) [µg/mL] | MIC (Pcc; [14]) [µg/mL] | MBC/MFC (Pcc; [15]) [µg/mL] | MIC (Pst DC3000) [µg/mL] | MBC (Pst DC3000) [µg/mL] | MIC (Pss B728a) [µg/mL] | MBC (Pss B728a) [µg/mL] | MIC (Ech; [14]) [µg/mL] | other results
Ac-WKKLKKLLKKL-NH2 [pepD3] | did not have detectable antimicrobial activity | significant membranolytic effect | significant membranolytic effect | did not detectably inhibit the diseases | did not detectably inhibit the diseases | did not detectably inhibit the diseases | did not detectably inhibit the diseases | 16 | 4 | 4 | 4 | 4 | 8 | 8 | 16 | 8 | 16 | 8 | 16 | 32 | MIC (Eco DH5α [6]): 8 µg/mL; MIC (Rs Pss4): – (“–” indicates that no antimicrobial activity was detected in minimal media at the highest concentration (32μg/ml) of crude peptides that was tested in this study.); MBC/MFC (Rs Pss4): – (“–” indicates that no antimicrobial activity was detected in minimal media at the highest concentration (32μg/ml) of crude peptides that was tested in this study.); MIC (Rs Pss190): – (“–” indicates that no antimicrobial activity was detected in minimal media at the highest concentration (32μg/ml) of crude peptides that was tested in this study.); MBC/MFC (Rs Pss190): – (“–” indicates that no antimicrobial activity was detected in minimal media at the highest concentration (32μg/ml) of crude peptides that was tested in this study.); MIC (Bc): – (“–” indicates that no antimicrobial activity was detected in minimal media at the highest concentration (32μg/ml) of crude peptides that was tested in this study.); MBC/MFC (Bc): – (“–” indicates that no antimicrobial activity was detected in minimal media at the highest concentration (32μg/ml) of crude peptides that was tested in this study.); antimicrobial activity (Bc): did not have detectable antimicrobial activity; MIC (Cgl FST02): – (“–” indicates that no antimicrobial activity was detected in minimal media at the highest concentration (32μg/ml) of crude peptides that was tested in this study.); MBC/MFC (Cgl FST02): – (“–” indicates that no antimicrobial activity was detected in minimal media at the highest concentration (32μg/ml) of crude peptides that was tested in this study.); antimicrobial activity (Cgl FST02): did not have detectable antimicrobial activity
Ac-WKKLKKLLKKLKKL-NH2 [pepD2] | did not have detectable antimicrobial activity | significant membranolytic effect | significant membranolytic effect | did not detectably inhibit the diseases | did not detectably inhibit the diseases | did not detectably inhibit the diseases | did not detectably inhibit the diseases | 8 | 4 | 4 | 4 | 8 | 8 | 8 | 8 | 4 | 8 | 8 | 16 | 16 | Plant response to infection with Pcc, Tomato (class and significance; number of batches in parentheses) ([2]; crude peptide 16 µg/mL, lesion diameter 16–28 h post-inoculation, Student's t-test vs water-treated): ns(3); Plant response to infection with Bc, Arabidopsis (class and significance; number of batches in parentheses) (Botrytis cinerea (Bc) [5]; crude peptide 16 µg/mL, lesion diameter 47–70 h post-inoculation, Student's t-test vs water-treated): ns(2 ); MIC (Pcc; Table 7, rich media, 48 h): 4 µg/mL; MBC (Pcc; [16]): 8 µg/mL; MBC/MFC (Ech; [15]): 16 µg/mL; MIC (Ech; Table 7, rich media, 48 h): 32 µg/mL; MBC (Ech; [16]): 32 µg/mL; MIC (Rs Pss4): – (“–” indicates that no antimicrobial activity was detected in minimal media at the highest concentration (32μg/ml) of crude peptides that was tested in this study.); MBC/MFC (Rs Pss4): – (“–” indicates that no antimicrobial activity was detected in minimal media at the highest concentration (32μg/ml) of crude peptides that was tested in this study.); MIC (Rs Pss190): – (“–” indicates that no antimicrobial activity was detected in minimal media at the highest concentration (32μg/ml) of crude peptides that was tested in this study.); MBC/MFC (Rs Pss190): – (“–” indicates that no antimicrobial activity was detected in minimal media at the highest concentration (32μg/ml) of crude peptides that was tested in this study.); MIC (Bc): – (“–” indicates that no antimicrobial activity was detected in minimal media at the highest concentration (32μg/ml) of crude peptides that was tested in this study.); MBC/MFC (Bc): – (“–” indicates that no antimicrobial activity was detected in minimal media at the highest concentration (32μg/ml) of crude peptides that was tested in this study.); antimicrobial activity (Bc): did not have detectable antimicrobial activity; MIC (Cgl FST02): – (“–” indicates that no antimicrobial activity was detected in minimal media at the highest concentration (32μg/ml) of crude peptides that was tested in this study.); MBC/MFC (Cgl FST02): – (“–” indicates that no antimicrobial activity was detected in minimal media at the highest concentration (32μg/ml) of crude peptides that was tested in this study.); antimicrobial activity (Cgl FST02): did not have detectable antimicrobial activity
Ac-WKLLKKLLKLLKKLLKLL-NH2 [pepB] |  |  |  |  |  |  |  |  |  |  |  |  |  |  |  |  |  |  |  |  | IC50 (Xcc Xcc17): – (“–” indicates that no antimicrobial activity was detected in rich media at the highest peptide concentration (20μg/ml) that was tested in this study.); IC50 (Xoo Xoo28 [9]): – (“–” indicates that no antimicrobial activity was detected in rich media at the highest peptide concentration (20μg/ml) that was tested in this study.); IC50 (Atu C58C1): – (“–” indicates that no antimicrobial activity was detected in rich media at the highest peptide concentration (20μg/ml) that was tested in this study.); α-helix formation ([10]; 10% TFE): 90%; α-helix content ([10]; dissolved in water): about 25%; IC50 (Eco DH5α [11]): – (key: “–” indicates that no antimicrobial activity was detected in rich media at the highest peptide concentration (20μg/ml) that was tested in this study.); IC50 (Xev Xvt28 [12]): 20 µg/mL
